# Columns and labels:
# [1] = system: PrP^Sc load in ScN2a-cl3 cells; format: cell-based, murine
# [2] = mouse, in vivo
Compound,Antiprion activity (in words) [1],other results
"COc1ccc(-c2csc(Nc3cccc(C)n3)n2)cc1OC [Compound 4, [4-(3,4-dimethoxyphenyl)-thiazol-2-yl]-(6-methylpyridin-2-yl)-amine]",equipotent to 3,–
"CNc1nc(-c2ccc(OC)c(OC)c2)cs1 [Compound 5, 4-(3,4-dimethoxyphenyl)-N-methyl-1,3-thiazol-2-amine]",without significant activity,–
"Cc1ccc(Nc2nc(-c3cc(-c4ccccc4)no3)cs2)nc1 [Compound 27, (5-Methylpyridin-2-yl)-[4-(3-phenylisoxazol-5-yl)-thiazol-2-yl]-amine]",–,Mean brain concentration in excess of in vitro EC50 ([2]; FVB): ≤ 25 fold; Brain versus plasma concentration [2]: generally exceeded those in plasma
"Cc1ccc(Nc2nc(C)cs2)nc1 [Compound 29, (5-Methylpyridin-2-yl)-(4-methylthiazol-2-yl)-amine]",inactive,–
"FC(F)(F)Oc1ccc(-c2csc(Nc3cc4ccccc4cn3)n2)cc1 [Compound 31, Isoquinolin-3-yl-[4-(4-trifluoromethoxyphenyl)-thiazol-2-yl]-amine]",inactive,–
"Cc1csc(Nc2cc3ccccc3cn2)n1 [Compound 36, Isoquinolin-3-yl-(4-methylthiazol-2-yl)-amine]",inactive,–
"[4-(3,4-dimethoxyphenyl)-thiazol-2-yl]-pyridin-3-yl-amine [Compound 7]",–,EC50 ([1]; read-out: ScN2a-cl3 EC50): 1220 nM

# From article PMC3041857 (Journal of medicinal chemistry, 2011)
